Data from ChEMBL document CHEMBL5291721, “A preclinical secondary pharmacology resource illuminates target-adverse drug reaction associations of marketed drugs” (Nat Commun, 2023).

Columns and labels:
[1] = biological target: 3',5'-cyclic-AMP phosphodiesterase 4A (Homo sapiens, UniProt P27815); type: functional
[2] = biological target: Gamma-aminobutyric acid receptor subunit alpha-1 (Rattus norvegicus, UniProt P62813); type: functional
Adenosine receptor A3 = biological target: T1, Adenosine receptor A3 (Homo sapiens, UniProt P0DMS8)
T1 sequence (P0DMS8 whole entry): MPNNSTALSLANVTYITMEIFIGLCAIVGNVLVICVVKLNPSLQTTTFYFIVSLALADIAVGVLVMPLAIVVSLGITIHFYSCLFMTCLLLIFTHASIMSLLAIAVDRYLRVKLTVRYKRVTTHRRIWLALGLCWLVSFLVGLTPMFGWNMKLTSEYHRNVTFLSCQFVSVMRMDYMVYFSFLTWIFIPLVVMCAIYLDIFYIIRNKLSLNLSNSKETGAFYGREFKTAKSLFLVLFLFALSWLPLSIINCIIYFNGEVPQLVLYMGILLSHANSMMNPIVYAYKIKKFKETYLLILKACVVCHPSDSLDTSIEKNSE

D(1A) dopamine receptor = D(1A) dopamine receptor (Homo sapiens, UniProt P21728); type: functional, cell-based
[3] = biological target: T2, Alpha-2A adrenergic receptor (Homo sapiens, UniProt P08913); type: functional, cell-based
T2 sequence (P08913 whole entry): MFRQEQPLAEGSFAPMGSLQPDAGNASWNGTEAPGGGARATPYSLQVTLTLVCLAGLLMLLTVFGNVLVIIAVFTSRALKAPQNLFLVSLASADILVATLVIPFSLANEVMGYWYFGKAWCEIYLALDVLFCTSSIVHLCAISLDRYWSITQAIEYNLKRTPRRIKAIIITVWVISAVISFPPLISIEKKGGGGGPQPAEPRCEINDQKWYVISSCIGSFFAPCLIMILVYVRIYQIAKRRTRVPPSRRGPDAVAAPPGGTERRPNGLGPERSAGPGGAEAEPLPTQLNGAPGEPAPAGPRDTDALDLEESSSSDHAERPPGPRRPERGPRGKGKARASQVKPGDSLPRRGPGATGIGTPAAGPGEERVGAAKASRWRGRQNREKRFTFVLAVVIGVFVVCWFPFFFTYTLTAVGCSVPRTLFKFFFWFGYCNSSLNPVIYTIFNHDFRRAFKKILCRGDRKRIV

[4] = biological target: T3, Amine oxidase [flavin-containing] A (Homo sapiens, UniProt P21397); type: functional
T3 sequence (P21397 whole entry): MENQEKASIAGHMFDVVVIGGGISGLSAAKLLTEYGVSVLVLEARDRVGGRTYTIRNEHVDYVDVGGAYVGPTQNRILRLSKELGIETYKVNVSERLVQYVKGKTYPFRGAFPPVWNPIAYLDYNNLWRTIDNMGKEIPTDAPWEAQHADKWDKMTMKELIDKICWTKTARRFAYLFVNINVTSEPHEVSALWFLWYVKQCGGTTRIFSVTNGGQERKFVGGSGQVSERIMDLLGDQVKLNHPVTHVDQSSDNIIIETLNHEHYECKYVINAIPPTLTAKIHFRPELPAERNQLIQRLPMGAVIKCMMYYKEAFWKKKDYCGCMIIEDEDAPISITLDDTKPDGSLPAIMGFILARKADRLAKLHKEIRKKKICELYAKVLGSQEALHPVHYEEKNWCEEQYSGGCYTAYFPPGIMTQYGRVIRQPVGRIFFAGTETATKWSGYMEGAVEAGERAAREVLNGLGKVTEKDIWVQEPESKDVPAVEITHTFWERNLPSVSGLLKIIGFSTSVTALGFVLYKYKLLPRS

Melanocortin receptor 3 = Melanocortin receptor 3 (Homo sapiens, UniProt P41968)
[5] = biological target: T2, Alpha-2A adrenergic receptor; type: functional, cell-based; remark: listed apart in the source
Further: assay procedure not described here.

Chain of Melanocortin receptor 3 (P41968 whole entry): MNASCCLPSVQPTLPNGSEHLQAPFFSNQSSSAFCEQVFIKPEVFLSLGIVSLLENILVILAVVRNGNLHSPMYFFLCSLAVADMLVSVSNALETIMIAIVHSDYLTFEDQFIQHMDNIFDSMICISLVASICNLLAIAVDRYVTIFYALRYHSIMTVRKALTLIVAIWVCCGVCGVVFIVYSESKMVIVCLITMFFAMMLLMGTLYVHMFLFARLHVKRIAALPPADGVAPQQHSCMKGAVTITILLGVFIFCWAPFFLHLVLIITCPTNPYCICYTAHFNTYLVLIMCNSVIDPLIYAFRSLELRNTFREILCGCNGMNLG
Chain of 3',5'-cyclic-AMP phosphodiesterase 4A (P27815 whole entry): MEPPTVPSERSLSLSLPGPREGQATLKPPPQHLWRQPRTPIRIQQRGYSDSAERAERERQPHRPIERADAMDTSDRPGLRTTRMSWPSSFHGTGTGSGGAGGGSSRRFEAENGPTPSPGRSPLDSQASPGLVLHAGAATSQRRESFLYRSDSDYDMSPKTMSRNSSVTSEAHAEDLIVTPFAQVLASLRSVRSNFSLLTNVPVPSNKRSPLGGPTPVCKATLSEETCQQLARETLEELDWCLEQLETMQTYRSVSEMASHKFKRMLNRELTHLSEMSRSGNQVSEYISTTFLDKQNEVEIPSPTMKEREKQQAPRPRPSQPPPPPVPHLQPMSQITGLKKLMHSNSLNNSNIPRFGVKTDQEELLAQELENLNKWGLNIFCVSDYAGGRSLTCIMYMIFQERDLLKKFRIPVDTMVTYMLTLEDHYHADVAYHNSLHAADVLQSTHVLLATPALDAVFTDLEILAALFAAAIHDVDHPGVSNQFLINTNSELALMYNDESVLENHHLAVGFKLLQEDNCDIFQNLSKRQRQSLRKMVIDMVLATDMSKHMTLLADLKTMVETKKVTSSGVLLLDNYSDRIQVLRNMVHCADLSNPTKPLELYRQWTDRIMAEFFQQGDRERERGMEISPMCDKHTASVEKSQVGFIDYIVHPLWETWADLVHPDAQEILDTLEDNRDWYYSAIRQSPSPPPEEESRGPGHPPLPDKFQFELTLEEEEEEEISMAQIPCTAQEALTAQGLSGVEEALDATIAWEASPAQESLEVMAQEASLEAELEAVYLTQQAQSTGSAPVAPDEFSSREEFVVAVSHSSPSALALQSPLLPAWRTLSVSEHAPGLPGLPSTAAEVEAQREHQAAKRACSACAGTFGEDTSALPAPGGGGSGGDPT
Chain of Gamma-aminobutyric acid receptor subunit alpha-1 (P62813 whole entry): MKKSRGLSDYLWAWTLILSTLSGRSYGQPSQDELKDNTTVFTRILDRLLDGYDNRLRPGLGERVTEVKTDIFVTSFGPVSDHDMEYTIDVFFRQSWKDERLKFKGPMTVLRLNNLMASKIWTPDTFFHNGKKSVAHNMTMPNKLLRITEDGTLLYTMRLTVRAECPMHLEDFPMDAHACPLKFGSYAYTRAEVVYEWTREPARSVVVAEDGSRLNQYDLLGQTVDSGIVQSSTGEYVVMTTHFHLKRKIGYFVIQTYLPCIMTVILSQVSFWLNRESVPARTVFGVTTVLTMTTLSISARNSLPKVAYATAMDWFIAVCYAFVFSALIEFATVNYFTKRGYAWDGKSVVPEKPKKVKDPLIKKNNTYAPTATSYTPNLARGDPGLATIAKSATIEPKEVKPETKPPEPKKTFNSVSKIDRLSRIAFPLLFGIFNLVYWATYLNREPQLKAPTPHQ
Chain of D(1A) dopamine receptor (P21728 whole entry): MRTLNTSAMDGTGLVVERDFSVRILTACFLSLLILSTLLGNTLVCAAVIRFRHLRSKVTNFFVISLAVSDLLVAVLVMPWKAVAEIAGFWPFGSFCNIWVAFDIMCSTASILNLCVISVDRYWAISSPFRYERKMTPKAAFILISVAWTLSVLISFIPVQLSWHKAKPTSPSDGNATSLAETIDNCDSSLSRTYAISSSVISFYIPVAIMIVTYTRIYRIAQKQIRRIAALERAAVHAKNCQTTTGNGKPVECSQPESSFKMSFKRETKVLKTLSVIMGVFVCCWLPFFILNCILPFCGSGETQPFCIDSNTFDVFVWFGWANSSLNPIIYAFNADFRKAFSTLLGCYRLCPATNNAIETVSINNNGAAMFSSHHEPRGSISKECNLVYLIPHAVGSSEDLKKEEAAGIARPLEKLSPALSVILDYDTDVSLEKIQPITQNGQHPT

SMILES | AC50 [1] | other results
Cc1c(O)cccc1C(=O)N[C@@H](CSc1ccccc1)[C@H](O)CN1C[C@H]2CCCC[C@H]2C[C@H]1C(=O)NC(C)(C)C | > 30 µM | –
Nc1ccc(C(=O)O)cc1 [AMINOBENZOIC ACID] | > 30 µM | –
CCCC1C(=O)N2C(N(C)C)=Nc3ccc(C)cc3N2C1=O (configuration not stated) [APAZONE] | > 30 µM | –
CCS(=O)(=O)N1CC(CC#N)(n2cc(-c3ncnc4[nH]ccc34)cn2)C1 [BARICITINIB] | > 30 µM | –
O=C1CN=C(c2ccccc2)c2c(sc3c2CCCC3)N1 [BENTAZEPAM] | 15.7 µM | –
O=C(O)CCCN1CCC(O[C@@H](c2ccc(Cl)cc2)c2ccccn2)CC1 [BEPOTASTINE] | > 30 µM | –
CN(Cc1cc(Br)cc(Br)c1N)C1CCCCC1 [BROMHEXINE] | 26.3 µM | –
CCCCN(CCCC)CCCOC(=O)c1ccc(N)cc1 [BUTACAINE] | > 30 µM | –
CCCC[N+]1(C)[C@@H]2C[C@@H](OC(=O)[C@H](CO)c3ccccc3)C[C@H]1[C@@H]1O[C@@H]12 (some centres not stated) [BUTYLSCOPOLAMINE] | > 30 µM | –
C[N+](C)(C)CCOC(N)=O [CARBAMOYLCHOLINE] | – | AC50 [2]: > 10 µM; AC50 (Adenosine receptor A3): > 10 µM; AC50 (D(1A) dopamine receptor): > 30 µM; AC50 [3]: > 30 µM; AC50 [4]: > 10 µM; AC50 (Melanocortin receptor 3): > 10 µM; AC50 [5]: > 30 µM
NCc1ccccc1CC(=O)N[C@@H]1C(=O)N2C(C(=O)O)=C(CSc3nnnn3CC(=O)O)CS[C@H]12 [CEFORANIDE] | > 30 µM | –
O=C(c1ccc(F)c(F)c1Nc1ccc(I)cc1F)N1CC(O)([C@@H]2CCCCN2)C1 [COBIMETINIB] | > 30 µM | –
CN1CCN(C(c2ccccc2)c2ccccc2)CC1 [CYCLIZINE] | > 30 µM | –
NS(=O)(=O)c1cc2c(cc1Cl)NC(C1CC3C=CC1C3)NS2(=O)=O (configuration not stated) [CYCLOTHIAZIDE] | > 30 µM | –
Nc1nc(-n2cc(C(=O)O)c(=O)c3cc(F)c(N4CC(O)C4)c(Cl)c32)c(F)cc1F [DELAFLOXACIN] | > 30 µM | –
C[C@@H]1C[C@H]2[C@@H]3CCC4=CC(=O)C=C[C@]4(C)[C@@]3(F)[C@@H](O)C[C@]2(C)[C@H]1C(=O)CO [DESOXIMETASONE] | > 30 µM | –
COc1ccc(-c2cc(=O)c3c(O)cc(O[C@@H]4O[C@H](CO[C@@H]5O[C@@H](C)[C@H](O)[C@@H](O)[C@H]5O)[C@@H](O)[C@H](O)[C@H]4O)cc3o2)cc1O [DIOSMIN] | > 30 µM | –
CCOc1ccc(/C=C2\NCCc3cc(OCC)c(OCC)cc32)cc1OCC [DROTAVERINE] | 1.68 µM | –
CC1=NN(c2ccccc2)C(=O)C1 [EDARAVONE] | > 30 µM | –
CCOC(=O)C(c1c(O)c2ccccc2oc1=O)c1c(O)c2ccccc2oc1=O [ETHYL BISCOUMACETATE] | > 30 µM | –
Cc1nc(-c2ccc(OCC(C)C)c(C#N)c2)sc1C(=O)O [FEBUXOSTAT] | 29 µM | –
O=C1NCC2(CCN(CCc3ccccc3)CC2)O1 [FENSPIRIDE] | > 30 µM | –
CC(C)=CCC1C(=O)N(c2ccccc2)N(c2ccccc2)C1=O [FEPRAZONE] | > 30 µM | –
C[C@@H]1C[C@H]2[C@@H]3C[C@H](F)C4=CC(=O)C=C[C@]4(C)[C@@]3(F)[C@@H](O)C[C@]2(C)[C@@]1(O)C(=O)COC(=O)C(C)(C)C [FLUMETHASONE PIVALATE] | > 30 µM | –
C[C@@H]1C[C@H]2[C@@H]3C[C@H](F)C4=CC(=O)C(Cl)=C[C@]4(C)[C@@]3(F)[C@@H](O)C[C@]2(C)[C@@]1(O)C(=O)CO [HALOMETASONE] | > 30 µM | –
CC(C)Cc1ccc(C(C)C(=O)NO)cc1 (configuration not stated) [IBUPROXAM] | 24.2 µM | –
CC/C=C\C/C=C\C/C=C\C/C=C\C/C=C\CCCC(=O)O [ICOSAPENT] | > 30 µM | –
Oc1c(I)cc(I)c2cccnc12 [IODOQUINOL] | > 30 µM | –

SMILES | AC50 [1] | other results
CCC(Cc1c(I)cc(I)c(N)c1I)C(=O)O (configuration not stated) [IOPANOIC ACID] | 12.2 µM | –
O=C(NC1CCN(CCCCC2(C(=O)NCC(F)(F)F)c3ccccc3-c3ccccc32)CC1)c1ccccc1-c1ccc(C(F)(F)F)cc1 [LOMITAPIDE] | > 30 µM | –
CCN(CC)CCNc1ccc(C)c2sc3ccccc3c(=O)c12 [LUCANTHONE] | > 30 µM | –
CCOC(=O)CC(SP(=S)(OC)OC)C(=O)OCC (configuration not stated) [MALATHION] | > 30 µM | –
CC(=O)O[C@]1(C(C)=O)CC[C@H]2[C@@H]3C[C@H](C)C4=CC(=O)CC[C@]4(C)[C@H]3CC[C@@]21C [MEDROXYPROGESTERONE ACETATE] | > 30 µM | AC50 (Adenosine receptor A3): > 30 µM; AC50 (Melanocortin receptor 3): > 30 µM
CCC1(c2cccc(O)c2)CCCCN(C)C1 (configuration not stated) [MEPTAZINOL] | > 30 µM | –
CC(=O)OC(C)C[N+](C)(C)C (configuration not stated) [METHACHOLINE] | > 30 µM | –
C1N2CN3CN1CN(C2)C3 [METHENAMINE] | > 30 µM | –
Cn1cc[nH]c1=S [METHIMAZOLE] | > 30 µM | –
CO[C@@]12[C@H](COC(N)=O)C3=C(C(=O)C(C)=C(N)C3=O)N1C[C@@H]1N[C@@H]12 [MITOMYCIN] | > 30 µM | –
O=[N+]([O-])c1cncn1CCN1CCOCC1 [NIMORAZOLE] | > 30 µM | –
NC(=O)c1cccc2cn(-c3ccc([C@@H]4CCCNC4)cc3)nc12 [NIRAPARIB] | > 30 µM | –
COc1ccc2c(c1)OC(C)(C)C(c1ccccc1)C2c1ccc(OCCN2CCCC2)cc1 (configuration not stated) [ORMELOXIFENE] | > 30 µM | –
Oc1cccc2cccnc12 [OXYQUINOLINE] | > 30 µM | –
Nc1nc2c(ncn2CCC(CO)CO)c(=O)[nH]1 [PENCICLOVIR] | > 30 µM | –
CC[C@@H]1/C=C(\C)C[C@H](C)C[C@H](OC)[C@H]2O[C@@](O)(C(=O)C(=O)N3CCCC[C@H]3C(=O)O[C@H](/C(C)=C/[C@@H]3CC[C@H](Cl)[C@H](OC)C3)[C@H](C)[C@@H](O)CC1=O)[C@H](C)C[C@@H]2OC [PIMECROLIMUS] | > 30 µM | –
CC(C(=O)O)c1ccc2c(c1)Cc1cccnc1O2 (configuration not stated) [PRANOPROFEN] | > 30 µM | –
CN(C)CCCN1c2ccccc2Sc2ccccc21 [PROMAZINE] | – | AC50 [2]: > 10 µM; AC50 (Adenosine receptor A3): > 30 µM; AC50 (D(1A) dopamine receptor): > 10 µM; AC50 [3]: > 10 µM; AC50 [4]: > 10 µM; AC50 (Melanocortin receptor 3): > 30 µM; AC50 [5]: > 10 µM
O=P(O)(O)C(O)(Cc1cccnc1)P(=O)(O)O [RISEDRONIC ACID] | – | AC50 [2]: > 30 µM; AC50 (Adenosine receptor A3): > 30 µM; AC50 (D(1A) dopamine receptor): > 30 µM; AC50 [3]: > 30 µM; AC50 [4]: > 30 µM; AC50 (Melanocortin receptor 3): > 30 µM; AC50 [5]: > 30 µM
CCO[C@@H](Cc1ccc(OCCn2c(C)ccc2-c2ccc(SC)cc2)cc1)C(=O)O [SAROGLITAZAR] | 11.1 µM | –
CN1CCC2=C(C1)c1ccccc1Cc1ccccc12 [SETIPTILINE] | > 30 µM | –
COc1ccc(CCC(C)NCC(O)c2ccc(O)c([S+](C)[O-])c2)cc1 (configuration not stated) [SULFINALOL] | > 30 µM | –
O=C1CCC(N2C(=O)c3ccccc3C2=O)C(=O)N1 (configuration not stated) [THALIDOMIDE] | > 30 µM | AC50 [2]: > 10 µM; AC50 (Adenosine receptor A3): > 30 µM; AC50 (D(1A) dopamine receptor): > 10 µM; AC50 [3]: > 10 µM; AC50 [4]: > 10 µM; AC50 (Melanocortin receptor 3): > 30 µM; AC50 [5]: > 10 µM
CCC1C(C)=NN=C(c2ccc(OC)c(OC)c2)c2cc(OC)c(OC)cc21 (configuration not stated) [TOFISOPAM] | 0.319 µM | –
COc1cc(NCc2ccc3nc(N)nc(N)c3c2C)cc(OC)c1OC [TRIMETREXATE] | 7.19 µM | –
C[C@@H]1O[C@@H](OC[C@H]2O[C@@H](Oc3c(-c4ccc(OCCO)c(OCCO)c4)oc4cc(OCCO)cc(O)c4c3=O)[C@H](O)[C@@H](O)[C@@H]2O)[C@H](O)[C@H](O)[C@H]1O [TROXERUTIN] | > 30 µM | –
COc1cc2c(cc1OC)[C@H]1C[C@@H](OC(=O)[C@@H](N)C(C)C)[C@H](CC(C)C)CN1CC2 [VALBENAZINE] | > 30 µM | –
